Assay results taken from article PMC11363844 (Materials Today Bio, 2024).

System: E. coli ATCC 25922
Assay: Resistance development assay
Type: cell-based

## CNC(C)C1CCC(N)C(OC2C(N)CC(N)C(OC3OCC(C)(O)C(NC)C3O)C2O)O1 (centres unmarked) [gentamicin]
Sequential culturing over 25 days
  day on which resistance was demonstrated: fifth
Sequential culturing, by the 23rd day
  fold increase of MIC value: 64 fold
